According to US5017570A, “Dibenzoxazepine compounds useful in the treatment of cerebral vasospasm or its sequela” (Chugai Seiyaku Kabushiki Kaisha, priority 1986, dated 1991):
Counter-ions that a name gives are not always drawn.

What was measured:
[1] = system: regional cerebral blood flow (r-CBF); assay: r-CBF by hydrogen clearance method in unanesthetized and unrestrained cats; type: in vivo, Siamese cats
Excerpt: The present inventors therefore employed the hydrogen clearance method wherein unanesthetized and unrestrained cats, each having a platinum electrode embedded in the cerebral cortex at four points, i.e., post. sigmoid G., post. sylvian G., mid. ecto-sylvian G. and post. suprasylvian G., and in the deeper area of the brain at three points, i.e., hippocampus, amygdala and hypothalamus, were exposed to a predetermined amount of hydrogen gas in a chamber. Using this method, the effects of compound Nos. 1 and 2 of the present invention on the regional cerebral blood flow (r-CBF) were evaluated. At the same time, analyses of blood pressure, the pH of blood, the gaseous components of the blood, and blood sugar levels were conducted with catheters being embedded in the femoral artery and vein.
One month before the start of experiment, a platinum electrode was embedded in the cerebral cortex of Siamese cats (both female and male) at four points, i.e., post. sigmoid G., post sylvian G., mid. ecto-sylvian G. and post. suprasylvian G., and in the deeper area of the brain at three points, i.e., hippocampus, amygdala and hypothalamus, the cats being then exposed to a predetermined amount of hydrogen gas in a chamber in an unanesthetized and unrestrained state.
In order to evaluate the effects of compound Nos. 1 and 2 of the present invention on the regional cerebral blood flow (r-CBF), a predetermined amount of each test compound was administered either perorally (p.o.) in gelatin capsules or by intravenous injection (i.v.) In the latter case, 0.2 mg/kg or 1 mg/kg (body weight) of a selected compound of the present invention was dissolved in a quantity of physiological saline equivalent to 1 ml/kg (body weight) and the total amount of their solution was injected over a period of 10 minutes in a sustained manner through a cannula attached to a vein in the upper thigh; a control (vinpocetine) in an amount equivalent to 1 mg/kg or 5 mg/kg (body weight) was dissolved in a quantity of 10% ascorbic acid equivalent to […] (body weight) and the total amount of the solution was injected over a period of 10 minutes in a sustained manner through a cannula attached to a vein in the upper thigh.
In the r-CBF analysis, a clearance curve was obtained with a computer (Signal Processor 7T17, product of Nippon Electric Co., Ltd. and Sanei Co., Ltd.), transformed into semi-logarithmic values which were then processed by the initial slope method to calculate all the values of r-CBF. Only values having a coefficient of correlation of at least 0.9 for regression line were used as applicable data and the level of significance was determined by the paired-t test for absolute values, with the values before administration of a test compound being taken as a control. The level of significance for the control group was tested by time-series dispersion analysis.

[2] = system: basilar artery; assay: Vasorelaxation of isolated basilar artery segments; type: cell-based, Beagles; conditions: 1 × 10^-5 M; for vasorelaxating action: in words
Description: Beagles of either sex weighing about 20 kg were anesthetized with i.v. administration of sodium […] (30 mg/kg) and were sacrificed by rapid exsanguination. After the brain was removed, the basilar artery was dissected out under magnification and was sectional in at 2- to 3-mm intervals. […] The segment was initially stretched at a tension of 400 mg for 1 hour with a force-displacement transducer (SB-1T, Nihon Kohden, Tokyo, Japan) during which time the buffer solution was changed several times. […] The total volume of agents never exceeded 25 μl or 5% of the chamber volume and experiments were done in the dark.

[3] = Experiment for subacute toxicity (30 days oral); type: in vivo, male rats (F344/crj); conditions: deaths/animals
Description: Compounds No. 1, IV, VI and VII were administered orally to male rats (F344/crj) at doses of […] body weight daily for 30 days and body weight gain were measured.

[4] = Experiment for acute toxicity (oral LD50); conditions: mouse, in vivo, 5-week old male CD-1 (ICR) mice
Description: Nos. 1, 2, 3 and 4 of the present invention were administered orally to 5-week old male CD-1 (ICR) mice and the LD50 values (g/kg) were determined by a routine method.

[5] = system: cyclic-GMP content in the thoracic aortae; assay: cyclic-GMP content in thoracic aorta rings by radioimmunoassay; type: cell-based, Sprague-Dawley male rats; conditions: 1×10^-6, 10^-5 or 10^-4 M, 37° C., 30 minutes
Description: Sprague-Dawley male rats were killed by decapitation, and their thoracic aortae were rapidly removed and immersed in ice-cold Krebs-Henseleit Ringer solution. The blood vessel was cut into rings with a length of about 3 mm and the weight of each wet tissue of the rings was measured. The rings of blood vessels were incubated at 37° C. for 30 minutes in portions of Krebs-Henseleit Ringer solution containing compound No. 1 (1×10^-6, 10^-5 or 10^-4 M) and vinpocetine (10^-4 M) under an atmosphere of 95% O2 - 5% CO2. Trichloroacetic acid (6%) was then added to the solution to stop the reaction and the cyclic-GMP content was determined by radioimunoassay method (YAMASA c-GMP Assay Kit).

[6] = minus: vasoconstriction, 0: no effect
[7] = i.v. over 10 minutes, 0.2 mg/kg

## CCOC(=O)C1=C[C@]2(CC)CCCN3CCc4c(n1c1ccccc41)[C@@H]32 [Vinpocetine, vinpocetine, reference compound]
[1]; i.v. over 10 minutes, 1 mg/kg
  Percent increase of r-CBF, 30 min.: 1.0%
  Percent increase of r-CBF, 60 min.: < 2.3%
[1]; i.v. over 10 minutes, 5 mg/kg
  Retention time: < 1 h
  Percent increase of r-CBF, 30 min.: -0.9%
  Percent increase of r-CBF, 60 min.: 8.3%
[1]; p.o., 20 mg/kg
  Retention time: < 1 h
  Percent increase of r-CBF, 30 min.: 12.3%
  Percent increase of r-CBF, 60 min.: 5.2%

## CCOC(=O)c1ccc2c(c1)N=C(c1ccccc1)c1ccc(OC)cc1O2 [No. III, reference compound]
[2]; [6]
  Vasorelaxation: 0 mg

## CCC1=Nc2cc(C(=O)O)ccc2Oc2cc(C)ccc21 [No. VII]
[3]; 1000 mg/kg daily for 30 days
  death: 5/6

## CCC1=Nc2cc(C(=O)O)ccc2Oc2cc(O)ccc21 [No. I, reference compound]
[2]; [6]
  Vasorelaxation: -20.5 mg

## COc1ccc2c(c1)Oc1ccc(C(=O)O)cc1N=C2C [1 (Na salt), sodium salt of 3-methoxy-11-methyldibenzo[b,f][1,4]oxazepin-8-carboxylic acid]
[1]; [7]
  Retention time: < 4 h
  Percent increase of r-CBF, 30 min.: 9.5%
  Percent increase of r-CBF, 60 min.: 13.6%
[1]; i.v. over 10 minutes, 1 mg/kg
  Retention time: > 4 h
  Percent increase of r-CBF, 30 min.: 13.3%
  Percent increase of r-CBF, 60 min.: 14.7%

## COc1ccc2c(c1)Oc1ccc(C(=O)O)cc1N=C2C [Compound No. 1, 3-methoxy-11-methyldibenzo[b,f][1,4]oxazepin-8-carboxylic acid]
[4]
  LD50: 3000 to 3500 mg/kg
[2]
  vasorelaxating action: show vasorelaxating action
[2]; No. 2 = 1.00, minus: vasoconstriction, 0: no effect
  Relative Potency (vasorelaxation): 49.02
[2]; [6]
  Vasorelaxation: 250.0 mg
[5]
  cyclic-GMP content in the thoracic aortae: increased dose-dependently
[1]; p.o., 10 mg/kg
  Retention time: > 4 h
  Percent increase of r-CBF, 30 min.: 12.9%
  Percent increase of r-CBF, 60 min.: 14.4%
[1]; p.o., 20 mg/kg
  Retention time: > 4 h
  Percent increase of r-CBF, 30 min.: 11.8%
  Percent increase of r-CBF, 60 min.: 11.0%
[1]; p.o., 50 mg/kg
  Retention time: > 4 h
  Percent increase of r-CBF, 30 min.: 14.6%
  Percent increase of r-CBF, 60 min.: 10.0%

## CCOC(=O)c1ccc2c(c1)N=C(CC)c1ccc(OC)cc1O2 [No. IV, reference compound]
[2]; [6]
  Vasorelaxation: 0 mg
[3]; 2000 mg/kg daily for 30 days
  death: 4/6

## CCC1=Nc2cc(C(=O)O)ccc2Oc2cc(OC)ccc21 [Compound No. 2]
[4]
  LD50: 4200 to 5000 mg/kg
[2]
  vasorelaxating action: show vasorelaxating action
[2]; [6]
  Vasorelaxation: 5.1 mg
[1]; p.o., 10 mg/kg
  Retention time: < 2 h
  Percent increase of r-CBF, 30 min.: 0.99%
  Percent increase of r-CBF, 60 min.: 9.1%
[1]; p.o., 20 mg/kg
  Retention time: > 4 h
  Percent increase of r-CBF, 30 min.: 13.8%
  Percent increase of r-CBF, 60 min.: 19.6%
[1]; p.o., 50 mg/kg
  Retention time: > 4 h
  Percent increase of r-CBF, 30 min.: 28.9%
  Percent increase of r-CBF, 60 min.: 22.4%

## CCOC(=O)c1ccc2c(c1)N=Cc1ccc(C)cc1O2 [No. II, reference compound]
[2]; [6]
  Vasorelaxation: 0 mg

## CCC1Nc2cc(C(=O)O)ccc2Oc2cc(OC)ccc21 (centres unmarked) [No. V, reference compound]
[2]; [6]
  Vasorelaxation: 0 mg

## CCC1=Nc2cc(C(=O)O)ccc2Oc2cc(OC)ccc21 [2 (Na salt), sodium salt of 3-methoxy-11-ethyldibenzo[b,f][1,4]oxazepin-8-carboxylic acid]
[1]; [7]
  Retention time: > 4 h
  Percent increase of r-CBF, 30 min.: 12.1%
  Percent increase of r-CBF, 60 min.: 21.0%
[1]; i.v. over 10 minutes, 1 mg/kg
  Retention time: > 4 h
  Percent increase of r-CBF, 30 min.: 8.1%
  Percent increase of r-CBF, 60 min.: 10.0%
